From patent US9586963B2 (GENFIT, priority 2011, dated 2017)

Assays:
Rev-Erb alpha [1] = biological target: T1, Rev-Erb alpha (Homo sapiens, UniProt P20393); test: TR-FRET (HTRF) assay of Rev-Erb alpha LBD with NCoR peptide ID1; assay type: biochemical; conditions: cell-free, Rev-Erb alpha LBD His 20 nM, NCoR ID1 30 nM
T1 sequence (P20393 284-614 limits assumed): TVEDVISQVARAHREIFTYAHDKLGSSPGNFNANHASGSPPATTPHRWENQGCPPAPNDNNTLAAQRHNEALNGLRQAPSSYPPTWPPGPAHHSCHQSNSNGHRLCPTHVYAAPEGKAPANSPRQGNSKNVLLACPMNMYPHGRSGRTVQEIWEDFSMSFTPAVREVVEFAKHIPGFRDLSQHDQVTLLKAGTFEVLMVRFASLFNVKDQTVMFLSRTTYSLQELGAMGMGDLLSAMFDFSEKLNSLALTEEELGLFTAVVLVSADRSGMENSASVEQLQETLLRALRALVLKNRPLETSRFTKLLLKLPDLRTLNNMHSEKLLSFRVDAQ
Procedure: Recombinant histidine-tagged Rev-Erb alpha ligand binding domain (LBD; SEQ ID NO: 1) and NCoR peptide ID1 (SEQ ID NO: 2) were tagged with fluorophores. Histidine-tagged Rev-Erb alpha LBD protein was set up in a one to one ratio of 20 nM of His D2 (Cis Bio International 61HSDLB). The NCoR peptide (ID1) was prepared in-house. We used a concentration of 30 nM NCoR and 10 nM Terbium-labeled streptavidin (Cis Bio International 610SATLB).
The buffer for this assay comprised PBS pH 7.2, NaH2P04 at 4 g/L, Na2HP04 at 27 g/L and NaCl at 9 g/l in deionized water. Before using the buffer in the assay, a mixture comprising 1 mM of DTT, 2 mM of CHAPS, 1 mM of EDTA and 0.1% BSA fatty acid free was added to the appropriate amount of buffer. The protein mixture comprising recombinant Rev-Erb alpha LBD His (20 nM), the NCoR ID1 (30 nM) and their respective fluorophores were added to each well of a 384-well plate in a volume 18 μl. The compounds to analyze were diluted in PBS 10% DMSO and was added in a volume of 2 μL in a well. The final mixture volume was 20 μL and the mixture was allowed equilibrate for 2 hours at room temperature. Fluorescence intensity was then counted on the TECAN Genios Pro as a ratio of the fluorescence measured at 665 nm and that measured at 620 nm obtained in the absence of the compound (buffer only) or with the compound. Four experiments were carried out for each compound.
Each compound has been tested at 6 different concentrations to depict a dose-effect enabling the measure of biochemical parameters such as EC50 and TOP activation (%).
The Homogenous Time Resolved Fluorescence (HTRF) assay allows studying the ability of compounds according to the invention to activate Rev-Erb alpha and thus modulate the interaction with its corepressor. The molecular interactions between these bio-molecules are assessed in a cell-free assay by coupling each partner with a fluorescent label and detecting the level of energy transfer. This energy transfer occurs when the distance between the donor (SA Terbium complex) and the acceptor (D2) is small enough.
The ability of compounds according to the invention of activating Rev-Erb alpha was assessed in the described acellular assay. EC50 and TOP activation were measured.

Rev-Erb alpha [2] = biological target: T1, Rev-Erb alpha; test: M2H (mammalian two-hybrid) cellular activation assay of Rev-Erb alpha; assay type: cell-based; conditions: M2H assay, HEK293 cells; for EC50: Gal4-Rev-Erb alpha / VP16-NCoR, luciferase reporter; for Emax: relative to DMSO, at the tested dose, read-out: TOP activation
Procedure, shortened: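 Six-point dose-response, 18 h, 37 °C, serum-free, in HEK293 cells carrying a Gal4-RE luciferase reporter with Gal4-Rev-Erb alpha or beta plus VP16-NCoR (corepressor interaction readout). EC50 and TOP activation (%) derived from luminescence across four experiments.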

| Structure (SMILES) | EC50 (Rev-Erb alpha [1]) [nM] | EC50 (Rev-Erb alpha [2]) [nM] | melting point [°C] | Emax (Rev-Erb alpha [2]) [%] |
| --- | --- | --- | --- | --- |
| FC(F)(F)c1nnc2ccc(Oc3ccccc3Cc3ccccc3)nn12 [Cpd.4-5, 6-(2-benzylphenoxy)-3-(trifluoromethyl)-[1,2,4]triazolo[4,3-b]pyridazine] | 100 to 1000 | 1000 to 6000 | 128.8 |  |
| Fc1cccc(-c2ccccc2Oc2ccc3nnc(Cl)n3n2)c1 [Cpd.4-3, 6-(3′-fluoro-biphenyl-2-yloxy)-3-chloro-[1,2,4]triazolo[4,3-b]pyridazine] | < 100 | 100 to 1000 | 97.3 |  |
| FC(F)(F)c1nnc2ccc(Oc3cccc(-c4ccccc4)c3)nn12 [Cpd.3-3, 6-(biphenyl-3-yloxy)-3-(trifluoromethyl)-[1,2,4]triazolo[4,3-b]pyridazine] | 1100 to 6000 | 100 to 1000 | 140.2 |  |
| Fc1ccc(-c2ccccc2Oc2ccc3nnc(Cl)n3n2)cc1 [Cpd.4-10, 6-(4′-fluoro-biphenyl-2-yloxy)-3-chloro-[1,2,4]triazolo[4,3-b]pyridazine] | < 100 | 100 to 1000 | 144.4 |  |
| O=C(c1ccccc1)c1ccccc1Oc1ccc2nnc(Cl)n2n1 [Cpd.4-11, (2-(3-chloro-[1,2,4]triazolo[4,3-b]pyridazin-6-yloxy)phenyl)(phenyl)methanone] | 1100 to 6000 | 1000 to 6000 | 137.9 |  |
| Clc1nnc2ccc(Oc3cccc(-c4ccccc4)c3)nn12 [Cpd.3-1, 6-(biphenyl-3-yloxy)-3-chloro-[1,2,4]triazolo[4,3-b]pyridazine] | 100 to 1000 | 100 to 1000 |  |  |
| Clc1nnc2ccc(Cc3ccccc3-c3ccccc3)nn12 [Cpd.4-9, 6-(biphenyl-2-ylmethyl)-3-chloro-[1,2,4]triazolo[4,3-b]pyridazine] | 100 to 1000 | 1000 to 6000 |  |  |
| Cc1cc2nnc(C(F)(F)F)n2nc1Oc1cc(C(F)(F)F)ccc1-c1cccnc1 [Cpd.5-33, 7-methyl-6-(2-(pyridin-3-yl)-5-(trifluoromethyl)phenoxy)-3-(trifluoromethyl)-[1,2,4]triazolo[4,3-b]pyridazine] |  | 1000 to 6000 | 173 to 175 |  |
| Fc1ccc(-c2cc(F)ccc2Oc2ccc3nnc(Cl)n3n2)c(F)c1 [Cpd.4-188, 3-chloro-6-(5,2′,4′-trifluorobiphenyl-2-yloxy)-[1,2,4]triazolo[4,3-b]pyridazine] |  | 100 to 1000 | 143.6 |  |
| COc1ncccc1-c1ccc(C(F)(F)F)cc1Oc1cc(C)c2nnc(Cl)n2n1 [Cpd.5-23, 3-chloro-6-(2-(2-methoxypyridin-3-yl)-5-(trifluoromethyl)phenoxy)-8-methyl-[1,2,4]triazolo[4,3-b]pyridazine] |  | 1000 to 6000 | 156 to 158 |  |
| CNc1ccc(Oc2ccc3nnc(Cl)n3n2)c(-c2ccccc2)c1 [Cpd.4-47, 3-chloro-6-(5-methylamino-biphenyl-2-yloxy)-[1,2,4]triazolo[4,3-b]pyridazine] |  | < 100 | 157 to 158 |  |
| Cc1ccc2c(Oc3cc(C(F)(F)F)ccc3-c3ccccc3)nn3c(Cl)nnc3c2c1 [Cpd.5-9, 3-chloro-6-(4-trifluoromethyl-biphenyl-2-yloxy)-9-methyl-[1,2,4]triazolo[3,4-a]phthalazine] |  | 100 to 1000 | 229 to 231 |  |
| CCCNc1ccc(Oc2ccc3nnc(Cl)n3n2)c(-c2ccccc2)c1 [Cpd.4-56, 3-chloro-6-(5-propylamino-biphenyl-2-yloxy)-[1,2,4]triazolo[4,3-b]pyridazine] |  | 100 to 1000 | 55 to 58 |  |
| Cc1cc(Oc2cc(C(F)(F)F)ccc2-c2cncnc2)nn2cnnc12 [Cpd.5-46, 8-methyl-6-(2-(pyrimidin-5-yl)-5-(trifluoromethyl)phenoxy)-[1,2,4]triazolo[4,3-b]pyridazine] |  | > 6000 | 230 to 234 | > 130 |
| Cc1ccc2c(c1)c(Oc1cc(C(F)(F)F)ccc1-c1ccccc1)nn1c(Cl)nnc21 [Cpd.5-10, 3-chloro-6-(4-trifluoromethyl-biphenyl-2-yloxy)-8-methyl-[1,2,4]triazolo[3,4-a]phthalazine] |  | 100 to 1000 | 195 to 197 |  |
| FC(F)(F)c1ccc(-c2cncnc2)c(Oc2nn3c(C(F)(F)F)nnc3c3ccccc23)c1 [Cpd.5-62, 6-(2-(pyrimidin-5-yl)-5-(trifluoromethyl)phenoxy)-3-(trifluoromethyl)-[1,2,4]triazolo[3,4-a]phthalazine] |  | 1000 to 6000 | 197 to 200 |  |
| FC(F)(F)c1ccc(-c2cccnc2)c(Oc2ccc3nnc(C(F)(F)F)n3n2)c1 [Cpd.4-126, 3-(trifluoromethyl)-6-(2-(pyridin-3-yl)-5-(trifluoromethyl)phenoxy)-[1,2,4]triazolo[4,3-b]pyridazine] |  | 1000 to 6000 | 69 to 70 |  |
| Fc1ccc(Oc2ccc3nnc(Cl)n3n2)c(-c2ccccc2)c1 [Cpd.4-15, 6-(5-fluoro-biphenyl-2-yloxy)-3-chloro-[1,2,4]triazolo[4,3-b]pyridazine] |  | 100 to 1000 | 148.4 |  |
| Fc1ccc(-c2ccccc2Oc2ccc3nnc(Cl)n3n2)cc1F [Cpd.4-20, 6-(3′,4′-difluoro-biphenyl-2-yloxy)-3-chloro-[1,2,4]triazolo[4,3-b]pyridazine] |  | 100 to 1000 | 129.3 |  |
| Cc1ccc(-c2ccc(C(F)(F)F)cc2Oc2ccc3nnc(Cl)n3n2)cn1 [Cpd.4-196, 3-chloro-6-(2-(6-methylpyridin-3-yl)-5-(trifluoromethyl)phenoxy)-[1,2,4]triazolo[4,3-b]pyridazine] |  | 1000 to 6000 | 212 to 214 |  |
| Cc1cc2nnc(Cl)n2nc1Oc1ccc(Cl)cc1-c1cncnc1 [Cpd.5-59, 3-chloro-6-(4-chloro-2-(pyrimidin-5-yl)phenoxy)-7-methyl-[1,2,4]triazolo[4,3-b]pyridazine] |  | > 6000 | 224 to 226 | > 130 |
| CC(C)CNc1ccc(Oc2ccc3nnc(Cl)n3n2)c(-c2ccccc2)c1 [Cpd.4-67, 3-chloro-6-(5-isobutylamino-biphenyl-2-yloxy)-[1,2,4]triazolo[4,3-b]pyridazine] |  | < 100 | 62 to 67 |  |
| COC(=O)c1cccc(-c2ccccc2Oc2ccc3nnc(Cl)n3n2)c1 [Cpd.4-140, 3-Chloro-6-(3′-(methyloxycarbonyl)biphenyl-2-yloxy)-[1,2,4]triazolo[4,3-b]pyridazine] |  | > 6000 | 236 to 246 | > 130 |
| COc1ncc(F)cc1-c1ccc(C(F)(F)F)cc1Oc1ccc2nnc(Cl)n2n1 [Cpd.4-131, 3-chloro-6-((2-(2-methoxy-5-fluoropyridin-3-yl))-5-(trifluoromethyl)phenoxy)-[1,2,4]triazolo[4,3-b]pyridazine] |  | 100 to 1000 | 60 to 68 |  |
| Clc1ccc(Oc2ccc3nnc(Cl)n3n2)c(-c2cncnc2)c1 [Cpd.4-194, 3-chloro-6-(4-chloro-2-(pyrimidin-5-yl)phenoxy)-[1,2,4]triazolo[4,3-b]pyridazine] |  | > 6000 | 152 to 155 | > 130 |
| Clc1ccccc1-c1ccccc1Oc1ccc2nnc(Cl)n2n1 [Cpd.4-25, 6-(2′-chloro-biphenyl-2-yloxy)-3-chloro-[1,2,4]triazolo[4,3-b]pyridazine] |  | < 100 | 81.9 |  |
| Cc1cc(Oc2ccc(Cl)cc2-c2cncnc2)nn2c(Cl)nnc12 [Cpd.5-58, 3-chloro-6-(4-chloro-2-(pyrimidin-5-yl)phenoxy)-8-methyl-[1,2,4]triazolo[4,3-b]pyridazine] |  | 1000 to 6000 | 208 to 210 |  |
